Measured values published in patent publication US10578610B2, “Peptide regulators of mitochondrial fusion and methods of use” (priority 2016, dated 2020).
Square brackets hold non-standard residues; d marks the D form. Ends that are not written are not given here. pS = N[C@@H](COP(=O)(O)O)C(=O)O

Legend:
mitochondrial fusion = experiment: Alanine scanning of TetherX-1 and Go-Fuse peptides, effect on mitochondrial fusion in cells; assay type: cell-based; details: variants linked to TAT carrier via GG linker; compared with SEQ ID NO:48 or 50
Protocol: Alanine scanning mutagenesis experiments were performed in order to identify amino acids critical for the function of the TetherX-1 and Go-Fuse peptides. Alanine was individually substituted for each amino acid in the Tetherx-1 and Go-Fuse peptides and the modified peptides, linked to the TAT carrier peptide via a GG linker, were administered to cells and the effect on mitochondrial fusion measured. Table 5 lists Go-Fuse variants which maintained fusion-promoting activity (activity similar to that of SEQ ID NO:48 or 50) while Table 6 lists variant Go-Fuse peptides in which substitutions had no effect (substitution of a non-critical amino acid).

WT MEFs and Mfn2 KO MEFs = experiment: Parkin recruitment and mitophagy induced by mitochondrial depolarization, adenoviral expression; assay type: cell-based, murine; details: data not shown
Protocol: (§1) MEFs or neurons were grown on chamber slides and infected with recombinant adenoviri for 48-72 hours unless otherwise indicated. MEFs were stained with MitoTracker Green (200 nM, Invitrogen M7514) and Blue Hoechst (10 mg/ml, Invitrogen H3570), with or without tetramethylrhodamine ethyl ester (TMRE; 200 nM, Invitrogen T-669). Neuronal mitochondria were labeled with adenoviral-expressed mitoGFP plus TMRE, or with adeno-mitoDsRed for time-lapse studies. Cover slips were loaded onto a chamber (Warner instrument, RC-40LP) in modified Krebs-Henseleit buffer (138 mM NaCl, 3.7 mM KCl, 1.2 mM KH2PO4, 15 mM Glucose, 20 mM HEPES and 1 mM CaCl2) at room temperature and visualized on a Nikon Ti Confocal microscope equipped with a 60×1.3 NA oil immersion objective. For mitophagy studies MEFs were stained with MitoTracker Green and infected with adeno-mcherry Parkin or stained with LysoTracker Deep Red (50 nM, Invitrogen L-7528); carbonylcyanide p-trifluoromethoxyphenylhydrazone (FCCP, 10 μM for 1 hour) was applied as a positive control. Mitochondrial fusion was measured at 2 and 6 hours after PEG-mediated cell fusion of MEFs treated 48 hours previously with adeno-mitoGFP or adeno-mitoDsRed (Chen et al., 2005, J Biol Chem, 280:26185-26192). Laser confocal fluorescence was excited with 561 nm (MitoTracker Green, GFP, FITC), 637 nm (TMRE, LysoTracker Red, mcherry-Parkin, MitoTracker Orange) or 408 nm (Blue Hoechst) laser diodes. Image analysis—Mitochondrial aspect ratio was calculated using automated edge detection and Image J software (Song et al., 2015, Cell Metab, 21:273-285). Mitochondrial depolarization was calculated as % of green mitochondria visualized on MitoTracker Green and TMRE merged images, expressed as green/(green+yellow mitochondria)×100. Parkin aggregation was calculated as % of cells with mitochondrial clumping of mcherry-Parkin (Song et al., 2015, Cell Metab, 21:273-285). Lysosomal engulfment of mitochondria was identified by colocalization of LysoTracker Red and MitoTracker Green (Song et al., 2015, Cell Metab, 21:273-285).
Also studied were the effects of the adenoviral expression of WT Mfn2, HR1 peptide, adeno367-384 and its glycine variant and adeno398-418 and its glycine variant on Parkin recruitment and mitophagy induced by mitochondrial depolarization which are also impaced by the Mfn1 and Mfn2 proteins (Chen et al., 2013, Science, 340:471-475; Gong G. et al., 2015, Science, 350:aad2459). These studies were performed using WT MEFs and Mfn2 KO MEFs.

WT MEFs = assay type: cell-based, murine; details: WT MEFs; varying concentrations / time course
Protocol: as §1
TAT47-57 is a well-characterized “carrier” peptide able to promote active cellular peptide uptake. Specifically, a linear peptide was constructed in which the hMfn2 modulatory peptide was linked by a peptide bond at its C-terminus to a Gly-Gly dipeptide linker whose C-terminus was linked by a peptide bond to the TAT47-57 peptide having the sequence YGRKKRRQRRR (SEQ ID NO:25). The resultant linear fusion-promoting peptide conjugate comprises the sequence […] (SEQ ID NO:23). The fusion-inhibiting linear peptide has the sequence […] (SEQ ID NO:24). Except for dose-response studies, stock concentrations of TAT-minipeptides in sterile water were applied to cultured MEFs at a dilution factor of 1:2000 to achieve final concentrations of 1 or 5 μM.
The functional consequences of the Mfn2 HR1-derived peptides were defined after synthesizing them as C-terminal TAT47-57 conjugates to promote active cellular uptake. Mitochondrial fusion can be detected by mixing of organellar contents (Chen et al., 2005, J Biol Chem, 280:26185-26192). […] (FIG. 8A, scale bar is 20 microns). Mitochondrial aspect ratio changed in parallel with mitochondrial mixing (FIG. 8B).
Experiments were performed with these shortened variants fused to a carrier peptide via a linker according to the methods described in Example 5 above. Wildtype MEFs were treated with varying concentrations of peptide fusion constructs described in Table 4 and mitochondrial aspect ratios determined. A dose response curve for TetherX-N and -C variants are shown in FIG. 17A (squares are data for TetherX-N and circles are for TetherX-C). The dose response curve for GoFuse-N and -C variants are shown in FIG. 17B (squares are for GoFuse-N and circles are for GoFuse-C).

[1] = tested on: murine embryonic fibroblasts (MEFs) expressing Mfn1 and/or Mfn2; experiment: Mitochondrial aspect ratio and polarization in MEFs infected with adenovirus expressing Mfn2 HR1 peptides; assay type: cell-based; details: adenoviral expression; for mitochondrial aspect ratio (length/width; an index of mitochondrial fusion): MOI 100, WT and Mfn2 null MEFs, vs Ad-Null/β-gal control; for mitochondrial polarization status: WT MEFs, TMRE; for mitochondrial aspect ratio (elongation/shortening) compared with adeno-HR1 or Mfn deletion: WT, Mfn1 KO, Mfn2 KO, Mfn1/Mfn2 DKO MEFs
Protocol: The effect of each of the peptides listed in Table 1 on mitochondrial function was tested in a cell culture system using murine embryonic fibroblasts (MEFs) as described in Example 4. Wild-type MEFs express both Mfn1 and Mfn2. Also used were MEFs in which the Mfn2 gene was knocked out (MEF Mfn2 KO). The details of the experiments are provided in Example 3. In these experiments, the MEFs were infected with adenovirus (AV) engineered to express one of the peptides or full-length Mfn2 as a control. Mitochondrial fusion activity was measured using confocal microscopy and quantitative analysis of the mitochondrial aspect ratio which is a measurement of mitochondria length/width and is an accepted index of mitochondrial fusion. […] As with all confocal microscopic images provided herein, treated cells were stained to allow quantitative assessment of mitochondrial aspect ratio and polarization using methods routine in the art. In Examples 4-8, MitoTracker Green is used to stain the mitochondria to allow measurement of mitochondrial length and width to determine the aspect ratio. Red TMRE is used to measure mitochondrial polarization (membrane potential). Blue Hoechst stains nuclei.
Empty adenovirus (Ad-CMV-Null; #1300) and adenoviri expressing β-Galactosidase (Ad-CMV-b-Gal; #1080) or Cre recombinase (Ad-CMV-iCre; #1045) were from Vector Biolabs. Adenoviral expression vectors for hMfn2 HR1 and the minipeptides and Gly or Pro mutants were generated and amplified using standard methods. Adenoviral vectors were added to MEFs at 50% confluence at an MOI of 100.
as §1
First, an adenovirus which recombinantly expressed the hMfn2 HR1 binding fragment (adeno HR1) was introduced into MEFs. It was reasoned that competition of the intra-molecular HR1-HR2 interaction by free HR1 fragment would increase mitochondrial fusion. […]

GIMD(p)SLHMAARGGYGRKKRRQRRR (GIMD[pS]LHMAARGGYGRKKRRQRRR) [SEQ ID NO:54]
fusion-promoting activity (Mfn agonist activity) of Go-Fuse variants (mitochondrial fusion): statistically active

QDRLKFIDKQLELLAQDYKLR (listed as Homo sapiens) [adeno398-418]
Parkin recruitment and mitophagy induced by mitochondrial depolarization (WT MEFs and Mfn2 KO MEFs): No significant effects

QIAEAVRGGYGRKKRRQRRRR [GoFuse-N, N-terminal fragment of GoFuse-1 fused to TAT carrier, as tested]
mitochondrial aspect ratio (effect of TAT fusion construct) (WT MEFs): lacked fusion-promoting activity

GIMDSLHMAARGGYGRKKRRQRRR [GoFuse-C]
mitochondrial aspect ratio (effect of TAT fusion construct) (WT MEFs): induced mitochondrial elongation

GELLAQDYKLRGGYGRKKRRQRRR [TetherX-C]
mitochondrial aspect ratio (effect of TAT fusion construct) (WT MEFs): provoked mitochondrial fragmentation

QDRLKFIDKQGGYGRKKRRQRRR [TetherX-N, N-terminal fragment of TetherX-1 fused to TAT carrier, as tested]
mitochondrial aspect ratio (effect of TAT fusion construct) (WT MEFs): exhibited little activity

RQVSTAMAEEIRRLSVLVDDY (listed as Homo sapiens) [adeno428-448, non-HR1 control peptide]
mitochondrial aspect ratio (length/width; an index of mitochondrial fusion) [1]: did not affect mitochondrial fusion

QDRLKFIDKQGELLAQDYKLR [adeno398-418Gly, Mfn2 HR1 minipeptide, expressed in cells from adenoviral vector]
Parkin recruitment and mitophagy induced by mitochondrial depolarization (WT MEFs and Mfn2 KO MEFs): did not adversely impact | mitochondrial aspect ratio (length/width; an index of mitochondrial fusion) [1]: potently suppressed fusion | mitochondrial polarization status [1]: did not adversely impact mitochondrial polarization status

QIAEAVRGIMDSLHMAAR [adeno367-384Gly, Mfn2 HR1 minipeptide, expressed in cells from adenoviral vector]
Parkin recruitment and mitophagy induced by mitochondrial depolarization (WT MEFs and Mfn2 KO MEFs): did not adversely impact | mitochondrial aspect ratio (length/width; an index of mitochondrial fusion) [1]: promoted fusion | mitochondrial polarization status [1]: did not adversely impact mitochondrial polarization status | mitochondrial aspect ratio (elongation/shortening) compared with adeno-HR1 or Mfn deletion [1]: comparable to that produced by adeno-HR1

QIAEAVRLIMDSLHMAAR (listed as Homo sapiens) [adeno367-384]
Parkin recruitment and mitophagy induced by mitochondrial depolarization (WT MEFs and Mfn2 KO MEFs): No significant effects

FQNFERRFEECISQSAVKTKFEQHTVRAKQIAEAVRLIMDSLHMAAREQQVYCEEMREERQDRLKFIDKQLELLAQDYKLRIKQ [adeno-HR1]
Parkin recruitment and mitophagy induced by mitochondrial depolarization (WT MEFs and Mfn2 KO MEFs): No significant effects | mitochondrial aspect ratio (length/width; an index of mitochondrial fusion) [1]: increased mitochondrial aspect ratio | mitochondrial aspect ratio (elongation/shortening) compared with adeno-HR1 or Mfn deletion [1]: altered mitochondrial aspect ratio
